Results as given in ChEMBL document CHEMBL5226350, “NSAIDs: Old Acquaintance in the Pipeline for Cancer Treatment and Prevention─Structural Modulation, Mechanisms of Action, and Bright Future” (J Med Chem, 2021).

Legend:
A549 = assay: Antitumor activity against human A549 cells xenografted in ip dosed mouse assessed as tumor growth inhibition at 200 mg/kg measured after 6 weeks relative to control; type: functional; design: scale not given: the % may be the effect or the level left
A-431 = assay: Antitumor activity against human A-431 cells xenografted in sc dosed mouse assessed as tumor growth inhibition measured after 15 days in presence of diclofenac relative to control; type: functional; details: time 15 day
HT-29 [1] = assay: Antitumor activity against human HT-29 cells xenografted in ip dosed mouse assessed as reduction in tumor volume measured after 21 days relative to control; type: functional; design: scale not given: the % may be the effect or the level left; details: time 21 day
HT-29 [2] = assay: Antitumor activity against human HT-29 cells xenografted in sc dosed mouse assessed as reduction in tumor volume measured after 10 days relative to control; type: functional; design: scale not given: the % may be the effect or the level left; details: time 10 day
HT-29 [3] = assay: Antitumor activity against human HT-29 cells expressing Trx-1 xenografted in sc dosed mouse in presence of DFMO by immunohistochemical staining based analysis relative to control; type: functional
HT-29 [4] = assay: Antitumor activity against human HT-29 cells xenografted in sc dosed Apc/Min mouse assessed as reduction in tumor growth in presence of DFMO relative to control; type: functional
HT-29 [5] = assay: Antitumor activity against human HT-29 cells expressing Trx-1 xenografted in sc dosed mouse assessed as reduction in tumor volume in presence of DFMO by immunohistochemical staining based analysis relative to control; type: functional; design: scale not given: the % may be the effect or the level left
Mus musculus = assay: Inhibition of pancreatitis-accelerated acinar-to-ductal metaplasia in C57Bl/6J mouse harboring Kras G12D mutant at 100 mg/kg ,po administered via gavage measured after 3 weeks in presence of cerulein relative to control; type: toxicity, organism-based; details: 504 h
PANC-1 = assay: Antitumor activity against human PANC-1 cells xenografted in po dosed BALB/c mouse assessed as tumor growth inhibition measured after 30 days relative to control; type: functional; details: time 30 day
U-118-MG = assay: Antitumor activity against human U-118-MG cells xenografted in sc dosed BALB/c mouse assessed as tumor growth inhibition at 20 mg/kg measured after 29 days relative to control; type: functional; details: 696 h, time 29 day, read-out: TGI

CCOP(=O)(OCC)OCCCCNC(=O)C(C)c1ccc(CC(C)C)cc1 (stereo not given) gave an Activity (A549) of over 95%.
For NCCCC(N)(C(=O)O)C(F)F (stereo not given) [EFLORNITHINE], the TGI (A-431) was 90%.
With CCOP(=O)(OCC)OCc1cccc(OC(=O)c2ccccc2OC(C)=O)c1 the Activity (HT-29 [1]) was over 60%.
O=C(CCCO[N+](=O)[O-])Oc1ccccc1C(=O)Oc1ccc(-c2cc(=S)ss2)cc1 gave an Activity (HT-29 [2]) of 85%.
For CCOP(=O)(OCC)OCCCCOC(=O)CC1=C(C)/C(=C/c2ccc([S+](C)[O-])cc2)c2ccc(F)cc21 (stereo not given), the Activity (HT-29 [3]) was 50%, the TGI (HT-29 [4]) was 90% and the Activity (HT-29 [5]) was 83%.
Work on CCOP(=O)(OCC)OCC(COC(=O)c1ccccc1OC(C)=O)OP(=O)(OCC)OCC (stereo not given) yielded an inhibition at 100 mg/kg (Mus musculus) of 83% and a TGI (PANC-1) of 78%.
CCOP(=O)(OCC)OCC(CNC(=O)C(C)c1ccc(CC(C)C)cc1)OP(=O)(OCC)OCC (stereo not given) gave an inhibition in vivo at 20 mg/kg (U-118-MG) of 77%.
